# Reference: patent US10344034B2, “Pyrazolopyrimidone or Pyrrolotriazone derivatives, method of preparing same, and pharmaceutical applications thereof” (Shanghai Hengrui Pharmaceutical Co., Ltd., priority 2013, dated 2019)
# Read-outs that look alike come from different tables or passages of the source.
# What was measured:
# [1] = Seven-day toxicokinetic evaluation in rats; design: species or system SD rats; conditions: rat, in vivo; for AUC(0-inf): AUC0-∞; for MRT inf: MRT0-∞
# Protocol: Test Example 8. Seven-Day Toxicokinetic Evaluation of the Compound of Example 11 in Rats
# SD rats were used as test animals. The plasma concentration at various times was determined by LC/MS/MS after administration of the compound of Example 11 (SHR147280) by oral gavage for 7 days. The compound toxicity in rodents was preliminarily assessed according to the potential toxicity reaction and severity level of the body.
# Twenty-four (24) healthy adult SD rats (half female and half male) were evenly designated into 4 groups (6 for each group). The animals were purchased from Shanghai SLAC Laboratory Animal Corp. Ltd (laboratory animal production Certificate No. SCXK (HU) 2012-0002).
# An appropriate amount of sample was accurately weighed, and added with some 0.5% CMC-Na to form an uniform suspension upon ultrasonicator grinding treatment, and then diluted to the final volume. The test sample solutions on day 1 and day 7 were kept for the determination of administration concentration of toxicokinetics.
# Repeat oral doses were 80, 240, and 720 mg/kg, and administration concentrations were 8, 24, and 72 mg/ml respectively. The dosing volume was 10 ml/kg once daily for 7 days.
# The blood was sampled on day 1 and day 7 after administration with sampling time before, and 1, 2, 4, 8 and 24 hours after oral administration on day 1, as well as before, and 1, 2, 4, 8, 24 and 48 hours after oral administration on day 7. The blood sample was collected in a heparinized test tube, and centrifuged to separate the plasma, which was stored at −20° C. The content of the test compound in the plasma of rats after administration of the compound by oral gavage was determined by LC/MS/MS.
# [2] = Rat pharmacokinetics assay; assay type: in vivo, Sprague-Dawley (SD) rats; conditions: for AUC: read-out: Area under curve AUC; for half-life: read-out: Half-life T1/2 (converted); for MRT: read-out: Residence time MRT
# Protocol: Test Example 4. Rat pharmacokinetics assay of the compounds of Example 2, Example 3, Example 5, Example 9, Example 10, Example 11, and Example 13 of the present invention.
# Sprague-Dawley (SD) rats were used as test animals. The plasma concentrations at various times were determined by LC/MS/MS after intragastric administration of compounds of Example 2, Example 3, Example 5, Example 9, Example 10, Example 11, and Example 13, and intravenous administration of the compound of Example 11 to the rats. The pharmacokinetic behavior of the present compounds in rats was studied, and the pharmacokinetic features were evaluated.
# Thirty-two (32) healthy adult SD rats (half female and half male) were evenly designated into 8 groups (4 for each group). The animals were purchased from Shanghai Super B&K Laboratory Animal Corp. Ltd (laboratory animal production Certificate No. SCXK (HU)2008-0016).
# An appropriate amount of sample was weighed, and added with 0.5% CMC-Na to form a 1 mg/ml suspension upon ultrasonic treatment.
# Appropriate amounts of drugs were weighed, and dissolved with 0.5 ml DMSO and 0.5 ml of Tween 80. Saline solution was added to the final volume.
# Thirty-two (32) SD rats (half female and half male) were evenly designated into 8 groups (4 for each group), and administered by oral gavage or intravenous injection (i.v.) (oral gavage at a dosage of 10 mg/kg or 30 mg/kg, and i.v. at a dosage of 5.0 mg/kg), respectively, at a volume of 10 ml/kg after fasting overnight.
# 0.1 ml of blood was sampled before, and 0.5, 1, 2, 4, 6, 8, 11, and 24 hours after administration, collected in a heparinized test tube, and centrifuged at 3500 rpm for 10 minutes to separate the plasma, which was stored at −20° C. The animals were allowed access to feed 2 hours after administration.
# The content of the test compound in the plasma of rats after administration of the compound by oral gavage was determined by LC/MS/MS.
# human GnRHr = human GnRHr (Homo sapiens (Human), UniProt P30968); assay: Human GnRHr (GnRH receptor) activity assay, Fluo-4 calcium signal in Human GnRHr/CHO stably transfected cell lines; assay type: cell-based; conditions: Human GnRHr/CHO cells, GnRH polypeptide stimulant
# Protocol: Test Example 1. Human GnRHr (GnRH Receptor) Activity Assay of the Present Compounds.
# In vitro GnRHr protein activity was tested by the following methods.
# This assay was used to determine the inhibition effect of the present compound on the activity of human GnRHr protein expressed by Human GnRHr/CHO stably transfected cell lines.
# A mammalian expression vector containing the human GnRHr gene was transferred into CHO cells by adding Lipofectamine® LTX reagent containing Plus™. Antibiotics were added the next day for screening to pick out the monoclonal cell lines.
# The Human GnRHr/CHO stably transfected cell lines were inoculated in 96-well plates with an inoculation density of 25,000 cells/well. The culture medium was removed the next day, and loading buffer containing Fluo-4 dye was added to the plate (100 μL/well) and incubated for 30 minutes at 37° C. The plate was moved to room temperature and equilibrated for 10 minutes. Each compound was diluted with DMSO to seven concentration gradients of 100 μM, 10 μM, 1 μM, 0.1 μM, 0.01 μM, 0.001 μM, 0.0001 μM. Then, 1 μl of each gradient was added to each well and incubated for 10 minutes at room temperature. After automated addition of 50 μL of GnRH polypeptide stimulant solution, the value was immediately detected at 494/516 […] by a microplate reader (flexstation 3). IC50 values of the compounds were calculated by software from different fluorescence signals at various corresponding concentrations.
# The inhibitory activity of the present compounds on human GnRHr was determined by the above assay, and IC50 values are shown in Table 1.
# [3] = both sexes, Sprague-Dawley, plasma, iv, i.v. 5 mg/kg
# [4] = both sexes, Sprague-Dawley, plasma, oral 10 mg/kg
# human GnRHr, sequence (P30968 whole entry): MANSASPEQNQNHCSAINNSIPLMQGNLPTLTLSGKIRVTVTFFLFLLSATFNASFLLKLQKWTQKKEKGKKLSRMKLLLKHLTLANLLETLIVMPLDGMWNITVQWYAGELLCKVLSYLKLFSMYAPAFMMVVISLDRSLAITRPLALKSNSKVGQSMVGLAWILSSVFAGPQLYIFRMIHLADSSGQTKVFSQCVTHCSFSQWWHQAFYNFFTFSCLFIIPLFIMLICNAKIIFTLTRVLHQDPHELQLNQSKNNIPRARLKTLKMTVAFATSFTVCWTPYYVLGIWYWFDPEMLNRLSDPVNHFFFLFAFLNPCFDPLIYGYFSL
smiles,measurement,setting,value
"CONC(=O)Nc1ccc(-n2nc3c(c2CN(C)C)c(=O)n(-c2ccc(OC)nn2)c(=O)n3Cc2c(F)cccc2F)cc1 [Example 11, 1-(4-(7-(2,6-difluorobenzyl)-3-((dimethylamino)methyl)-5-(6-methoxypyridazin-3-yl)-4,6-dioxo-4,5,6,7-tetrahydro-2H-pyrazolo[3,4-d]pyrimidin-2-yl)phenyl)-3-methoxyurea]",NOAEL at 7 days,"[1]; both sexes, SD, po",240 mg/kg
same,lethal dose,"[1]; both, SD, po, 7 days",720 mg/kg
same,CLz/F,"[1]; female, SD, 80 mg/kg",7.71 mL/min/kg
same,CLz/F,"[1]; female, SD, 240 mg/kg",5.82 mL/min/kg
same,AUC0-t,"[1]; female, SD, po, 80 mg/kg",282.074 µg·h/mL
same,AUC0-∞,"[1]; female, SD, po, 80 mg/kg",313.468 µg·h/mL
same,Cmax,"[1]; female, SD, po, 80 mg/kg",19550 ng/mL
same,MRT0-∞,"[1]; female, SD, po, 80 mg/kg",9.23 h
same,Vd/F,"[1]; female, SD, po, 80 mg/kg",2.09 L/kg
same,AUC0-t,"[1]; female, SD, po, 80 mg/kg, AUC0-t",173 µg·h/mL
same,AUC(0-inf),"[1]; female, SD, po, 80 mg/kg",174 µg·h/mL
same,Cmax,"[1]; female, SD, po, 80 mg/kg, Cmax",17800 ng/mL
same,MRT inf,"[1]; female, SD, po, 80 mg/kg",5.82 h
same,AUC0-t,"[1]; female, SD, po, 240 mg/kg",790.873 µg·h/mL
same,AUC0-∞,"[1]; female, SD, po, 240 mg/kg",840.45 µg·h/mL
same,Cmax,"[1]; female, SD, po, 240 mg/kg",51150 ng/mL
same,MRT0-∞,"[1]; female, SD, po, 240 mg/kg",7.97 h
same,Vd/F,"[1]; female, SD, po, 240 mg/kg",2.87 L/kg
same,t1/2,"[1]; female, SD, po, 240 mg/kg",4.26 h
same,tmax,"[1]; female, SD, po, 240 mg/kg",6.0 h
same,AUC0-t,"[1]; female, SD, po, 240 mg/kg, AUC0-t",639 µg·h/mL
same,AUC(0-inf),"[1]; female, SD, po, 240 mg/kg",690 µg·h/mL
same,Cmax,"[1]; female, SD, po, 240 mg/kg, Cmax",41500 ng/mL
same,MRT inf,"[1]; female, SD, po, 240 mg/kg",9.63 h
same,half-life,"[1]; female, SD, po, 240 mg/kg, t1/2",5.73 h
same,tmax,"[1]; female, SD, po, 240 mg/kg, tmax",8 h
same,AUC0-t,"[1]; female, SD, po, 720 mg/kg",2838.65 µg·h/mL
same,Cmax,"[1]; female, SD, po, 720 mg/kg",138000 ng/mL
same,tmax,"[1]; female, SD, po, 720 mg/kg",24.0 h
same,AUC0-t,"[1]; female, SD, po, 720 mg/kg, AUC0-t",1550 µg·h/mL
same,Cmax,"[1]; female, SD, po, 720 mg/kg, Cmax",69300 ng/mL
same,tmax,"[1]; female, SD, po, 720 mg/kg, tmax",16 h
same,potential toxic target organs,[1]; po,"marrow hematopoietic system, thymus, heart, liver, lung, spleen, adrenal gland, ovary, and digestion system"
same,AUC,[2]; [3],2.67 ± 1.24 µg·h/mL
same,half-life,[2]; [3],1.59 ± 0.5 h
same,MRT,[2]; [3],2.25 ± 0.06 h
same,Vd/F,"[2]; both sexes, Sprague-Dawley, plasma, oral 10 mg/kg, read-out: Apparent volume of distribution Vz/F",3.29 ± 1.51 L/kg
same,AUC,[2]; [4],4.09 ± 1.44 µg·h/mL
same,CL/F,"[2]; both sexes, Sprague-Dawley, plasma, oral 10 mg/kg, read-out: Clearance rate CL/F",44.2 ± 13.4 mL/min/kg
same,half-life,[2]; [4],0.84 ± 0.18 h
same,Cmax,"[2]; both sexes, Sprague-Dawley, plasma, oral 10 mg/kg, read-out: Plasma concentration Cmax",2440 ± 873 ng/mL
same,MRT,[2]; [4],1.56 ± 0.34 h
same,Apparent volume of distribution Vz/F,[2]; i.v. 5 mg/kg,4.929 ± 2.39 L/kg
same,Clearance rate CL/F,[2]; i.v. 5 mg/kg,35.4 ± 12.5 mL/min/kg
same,IC50,human GnRHr,4.95 nM
